Data published in patent publication US9475836B2, “Protopanoxadiol derivative, preparation method thereof and application thereof” (SHANG HAI INNOVATIVE RESEARCH CENTER OF TRADITIONAL CHINESE …, priority 2013, dated 2016).
Where a name gives a salt, the structure may show the parent alone.

Test system: CUMS rats
Experiment: Rat chronic unpredictable mild stress depression model (CUMS) test, sucrose preference
Format: in vivo, Wistar rats
Conditions: for effect on sucrose water intake of CUMS rats: 0.375 mg/kg
Method: Rat Chronic Unpredictable Mild Stress Depression Model (CUMS) Test
Variety: Wistar rats; Sex: male; Body Weight: 200 g.
Compounds I and II (being compounds of Examples 1 and 5 respectively), venlafaxine hydrochloride
Experimental method comprises starting CUMS program after adaptively breeding the rats for 1 week.
1) Sucrose preference experiment: all animals were fed with 1% sucrose water within the first 24 h; during the subsequent 24 h, all the animals were simultaneously fed with 1% sucrose water and common drinking water, then fasted with water deprivation for 23 h. Subsequently sucrose preference experiment was performed: simultaneously feeding the animals with 1% sucrose water and common drinking water, and measuring the drinking amounts of sucrose water and common drinking water for animals in 1 h by weighing the drinking water bottles. The animals were grouped evenly according to the animal body weight, liquid consumption amount and sucrose water consumption, and subjected to chronic unpredictable mild stress stimulation.
2) CUMS experiment: the rats were alternately given tens of stress stimulation factors each week, so that the rats cannot predict the stimulation duration of each stress factor and the stimulation to be given subsequently. The stimulation factor includes: flash stimulation, noise stimulation, rat cage inclination; and strange smell environment feeding, fasting, water deprivation.
3) Detection method comprising: detecting liquid consumption amount after food-fasting and water-deprivation for 21 h each week, recording the body weight, total liquid intake, water intake and sucrose water intake of each animal, and calculating sucrose water preference percentage (preference=(sucrose water intake/total liquid intake)×100%) and sucrose water consumption amount per gram of body weight of each rat.

[1] = 1.5 mg/kg and 0.75 mg/kg, after the fifth week (P<0.01 or 0.05)

| SMILES | effect on sucrose water intake of CUMS rats | sucrose water intake of CUMS rats as compared to the model group [1] | sucrose water intake of CUMS rats as compared to the model group (20 mg/kg, during the fifth week (P<0.01)) |
| --- | --- | --- | --- |
| CC(C)(O)C1CCC(C)(C2CCC3(C)C2C(=NO)CC2C4(C)CCC(=NO)C(C)(C)C4CCC23C)O1 (centres unmarked) [Compound II] | not significant | statistically significant difference | – |
| CC(C)=CCCC(C)(O)C1CCC2(C)C1C(=NO)CC1C3(C)CCC(=NO)C(C)(C)C3CCC12C (centres unmarked) [Compound I] | not significant | statistically significant difference | – |
| COc1ccc(C(CN(C)C)C2(O)CCCCC2)cc1 (centres unmarked) [Venlafaxine, venlafaxine hydrochloride, reference compound] | – | – | statistically significant difference |
